Data from patent US11458189B2, “Cytoprotective drugs” (BALMES TRANSPLANTATION, priority 2017, dated 2022).
Starred links: 1 amine or outer side, 2 acyl side, 3 side chain; linkers in the order of their positions; H or OH if unused. Positions of bridges follow the written chain, without caps; N, C: chain ends. Non-standard residues stand in square brackets, D forms with d. Residues, ends and D or L forms follow the SMILES beside them. *: point of attachment. hTyr(3S-OH,4S-OH,3'-OSO3H) = N[C@H](C(=O)O)[C@H](O)[C@@H](O)c1ccc(O)c(OS(=O)(=O)O)c1; Orn(4R-OH,5R-OH) = O=C([C@H](C[C@@H](O)[C@@H](O)N[*:3])N[*:1])[*:2]; Pro(3S-OH,4S-Me) = C[C@H]1CN[C@H](C(=O)O)[C@H]1O; X1 = CCCCCOc1ccc(-c2cc(-c3ccc(C(=O)*)cc3)no2)cc1; Gln(3R-OH) = NC(=O)C[C@@H](O)[C@H](N)C(=O)O; Hyp = O=C(O)[C@@H]1C[C@@H](O)CN1

System: Human Cardiac Microvascular Endothelial Cells (HCMEC)
Experiment: Oxygen and glucose deprivation followed by replenishment, cell survival (calcein AM), HCMEC
Assay type: cell-based
Method: Anidulafungin and micafungin were tested on Human Renal Glomerular Endothelial Cells (HRGEC, Innoprot P10665), on Human Renal Proximal Tubular Epithelial Cells (HRPTEpiC, Innoprot P10662), on Human Astrocytes (HA, caltag SC-1800), on Human Cardiac Microvascular Endothelial Cells (HCMEC, Caltag SC-6000), on Human Hepatic Sinusoidal Endothelial Cells (HHSEC, Caltag SC-5000), on Rat Primary Kidney Glomerular Endothelial cells (Cellbiologics, RN-6014G) and on Bovine Brain Microvascular Endothelial Cells (BBMEC, Caltag SC-B100).
In a first phase, these isolated, purified and cryopreserved cells are thawed and multiplied according to the supplier's recommendations in T75 or T175 flasks pre-coated with 2 μg of fibronectin/[…] (CORNING) for HRGEC, HCMEC, HHSEC and BBMEC, or 2 μg poly-L-lysin/cm^2 (Caltag SC-0403) for HRPTEpiC and HA, or 15 mL/flask 175 cm^2 gelatin-based solution (Cellbiologics) in the presence of endothelial cell supplemented growth medium ECM (P60104, INNOPROT, Caltag, SC-1001) for HRGEC, HCMEC, HHSEC, RPKGEC or BBMEC, or astrocyte cell supplemented growth medium AM (Caltag SC-1801) for HA or epithelial cell supplemented growth medium EpiCM (P60106, INNOPROT) for HRPTEpiC, at 37° C. under 5% CO2 and saturated humidity until their confluency. They are then harvested by trypsinization according to the method described by the supplier for exactly 5 minutes and then reseeded in new flasks a maximum of three times.
To carry out the oxygen and glucose deprivation test followed by their replenishment, the cells will be seeded in 96-well black plates with transparent flat bottom (GREINER). Once a sufficient number of cells has been obtained to allow seeding of 2000 to 15000 cells per well of 96-well plates depending on the cell type, the cells are seeded in these 96-well plates previously coated with an extracellular matrix as listed above for the flasks. The cells are cultured for 5 to 8 days according to the cell type, in the presence of the same growth medium as in the flask as described above except for HRGEC and HRPTEpiC for which DMEM (DUTSCHER) with 1 g/L of supplemented glucose is used, at 37° C. under 5% CO2 and saturated humidity to obtain confluency.
On the first day of oxygen and glucose deprivation, (5th, 6th, 7th or 8th day of culture), the culture conditions are drastically changed. The medium of all plates is removed and replaced by DMEM (DUTSCHER) medium without glucose and supplemented only with 1% penicillin-streptomycin (DUTSCHER). Anidulafungin or micafungin dissolved in dimethyl sulfoxide (DMSO) is then added to each well at the desired concentration, resulting in a maximum of 1% DMSO, and the plates are placed under hypoxia at <1% 02 and 5% CO2 at 37° C. for 24 hours of culture. Each compound was tested in a concentration range.
After 24 hours, the growth medium is changed and replaced by a richer medium, DMEM (DUTSCHER) at 1 g/L glucose and 2% FBS (INNOPROT) and 1% penicillin-streptomycin (DUTSCHER). These media will have been pre-equilibrated at 37° C. in advance. The cells are then returned to culture at 37° C. under 20% 02 and 5% CO2 for 22h.
After 22 hours of reoxygenation, the potential protective effect of anidulafungin or micafungin is measured by a cell viability test using calcein AM (CORNING), which is a dye substrate. The calcein AM can easily cross the cell membrane of the viable cells. The AM ester groups mask the part of the molecule that chelates calcium. Once inside the cells, the (non-fluorescent) calcein AM is hydrolyzed to (fluorescent) calcein by endogenous esterases. The resulting calcein molecule binds to calcium inside the cell and remains trapped inside the cell. These molecules emit strong green fluorescence when subjected to […] of a particular wavelength (495 nm). Since dead cells lack esterase activity, only living cells are labelled.
This cell viability test is performed in two steps. […]

## CCCCCOc1ccc(-c2cc(-c3ccc(C(=O)N[C@H]4C[C@@H](O)[C@@H](O)NC(=O)[C@@H]5[C@@H](O)[C@@H](C)CN5C(=O)[C@H]([C@H](O)CC(N)=O)NC(=O)[C@H]([C@H](O)[C@@H](O)c5ccc(O)c(OS(=O)(=O)O)c5)NC(=O)[C@@H]5C[C@@H](O)CN5C(=O)[C@H]([C@@H](C)O)NC4=O)cc3)no2)cc1 [Micafungin, {5-[(1S,2S)-2-[(3S,6S,9S,11R,15S,18S,20R,21R,24S,25S,26S)-3-[(1R)-2-carbamoyl-1-hydroxyethyl]-11,20,21,25-tetrahydroxy-15-[(1R)-1-hydroxyethyl]-26-methyl-2,5,8,14,17,23-hexaoxo-18-[(4-{5-[4-(pentyloxy)phenyl]-1,2-oxazol-3-yl}benzene)amido]-1,4,7,13,16,22-hexaazatricyclo[22.3.0.0]heptacosan-6-yl]-1,2-dihydroxyethyl]-2-hydroxyphenyl}oxidanesulfonic acid] (X1-[Orn(4R-OH,5R-OH)]T[Hyp][hTyr(3S-OH,4S-OH,3'-OSO3H)][Gln(3R-OH)][Pro(3S-OH,4S-Me)]; lactam 1-C)
[Micafungin] log μM 0
  Globalfluo assay 1: 4455401 arbitrary units
  Globalfluo assay 2: 4660836 arbitrary units
  Globalfluo assay 3: 4639734 arbitrary units
  Mean globalfluo: 4585324 arbitrary units
  Survival rate (%): −3%
[Micafungin] log μM 0.4771213
  Globalfluo assay 1: 5103911 arbitrary units
  Globalfluo assay 2: 5348145 arbitrary units
  Globalfluo assay 3: 4886218 arbitrary units
  Mean globalfluo: 5112758 arbitrary units
  Survival rate (%): 0%
[Micafungin] log μM 0.7781513
  Globalfluo assay 1: 5452718 arbitrary units
  Globalfluo assay 2: 4992821 arbitrary units
  Globalfluo assay 3: 6254079 arbitrary units
  Mean globalfluo: 5566539 arbitrary units
  Survival rate (%): 3%
[Micafungin] log μM 0.90309
  Globalfluo assay 1: 5299685 arbitrary units
  Globalfluo assay 2: 5787047 arbitrary units
  Globalfluo assay 3: 5397439 arbitrary units
  Mean globalfluo: 5494724 arbitrary units
  Survival rate (%): 3%
[Micafungin] log μM 1
  Globalfluo assay 1: 5522064 arbitrary units
  Globalfluo assay 2: 5305822 arbitrary units
  Globalfluo assay 3: 6090892 arbitrary units
  Mean globalfluo: 5639593 arbitrary units
  Survival rate (%): 3%
[Micafungin] log μM 1.079181
  Globalfluo assay 1: 5365305 arbitrary units
  Globalfluo assay 2: 5914359 arbitrary units
  Globalfluo assay 3: 4948085 arbitrary units
  Mean globalfluo: 5409250 arbitrary units
  Survival rate (%): 2%
[Micafungin] log μM 1.176091
  Globalfluo assay 1: 5886475 arbitrary units
  Globalfluo assay 2: 5800515 arbitrary units
  Globalfluo assay 3: 6203727 arbitrary units
  Mean globalfluo: 5963572 arbitrary units
  Survival rate (%): 5%
[Micafungin] log μM 1.30103
  Globalfluo assay 1: 6537106 arbitrary units
  Globalfluo assay 2: 5661218 arbitrary units
  Globalfluo assay 3: 6414894 arbitrary units
  Mean globalfluo: 6204406 arbitrary units
  Survival rate (%): 7%
[Micafungin] log μM 1.477121
  Globalfluo assay 1: 5692141 arbitrary units
  Globalfluo assay 2: 6434487 arbitrary units
  Globalfluo assay 3: 7272557 arbitrary units
  Mean globalfluo: 6466395 arbitrary units
  Survival rate (%): 8%
[Micafungin] log μM −0.5228788
  Globalfluo assay 1: 4445501 arbitrary units
  Globalfluo assay 2: 5528681 arbitrary units
  Globalfluo assay 3: 4443191 arbitrary units
  Mean globalfluo: 4805791 arbitrary units
  Survival rate (%): −1%
[Micafungin] log μM −1
  Globalfluo assay 1: 4527783 arbitrary units
  Globalfluo assay 2: 4062591 arbitrary units
  Globalfluo assay 3: 5413646 arbitrary units
  Mean globalfluo: 4668007 arbitrary units
  Survival rate (%): −2%
[Micafungin] log μM −2
  Globalfluo assay 1: 4648220 arbitrary units
  Globalfluo assay 2: 3959524 arbitrary units
  Globalfluo assay 3: 4368024 arbitrary units
  Mean globalfluo: 4325256 arbitrary units
  Survival rate (%): −4%
